Measurements as given in the kinase profiling compilation of Christmann-Franck et al. (2016).

Key:
Test in all cases: KINOMEscan competition binding
Conditions in all cases: compound 10.0 µM
[1] = target: PIK3C2B (human) (UniProt O00750)
[2] = target: MAP4K1 (human) (UniProt Q92918)
[3] = target: MST1R (human) (UniProt Q04912)
[4] = target: TESK1 (human) (UniProt Q15569)
[5] = target: PIP4K2C (human) (UniProt Q8TBX8)
[6] = target: PTK6 (human) (UniProt Q13882)
[7] = target: GRK7 (human) (UniProt Q8WTQ7)
[8] = target: STK17A (human) (UniProt Q9UEE5)
[9] = target: DCLK2 (human) (UniProt Q8N568)
[10] = target: TEC (human) (UniProt P42680)
[11] = target: ERBB3 (human) (UniProt P21860)
[12] = target: STK33 (human) (UniProt Q9BYT3)
[13] = target: MYO3B (human) (UniProt Q8WXR4)
[14] = target: SIK2 (human) (UniProt Q9H0K1)
[15] = target: SRC (human) (UniProt P12931)
[16] = system: LRRK2 (human), Q5S007 [G2019S]
[17] = target: WEE2 (human) (UniProt P0C1S8)
[18] = target: MAST1 (human) (UniProt Q9Y2H9)
[19] = target: PLK2 (human) (UniProt Q9NYY3)
[20] = target: BMPR2 (human) (UniProt Q13873)
[21] = target: FYN (human) (UniProt P06241)
[22] = target: SYK (human) (UniProt P43405)
[23] = target: MAPK12 (human) (UniProt P53778)
[24] = target: CHEK2 (human) (UniProt O96017)
[25] = target: CSNK1D (human) (UniProt P48730)
[26] = target: HIPK3 (human) (UniProt Q9H422)
[27] = target: ACVR2B (human) (UniProt Q13705)
[28] = target: TNNI3K (human) (UniProt Q59H18)
[29] = target: PRKAA2 (human) (UniProt P54646)
[30] = target: CDKL3 (human) (UniProt Q8IVW4)
[31] = target: FGFR2 (human) (UniProt P21802)
[32] = target: AXL (human) (UniProt P30530)
[33] = target: CLK1 (human) (UniProt P49759)
[34] = target: STK25 (human) (UniProt O00506)
[35] = target: NIM1 (human) (UniProt Q8IY84)
[36] = target: LRRK2 (human) (UniProt Q5S007)
[37] = target: ULK3 (human) (UniProt Q6PHR2)
[38] = target: CSNK2A1 (human) (UniProt P68400)
[39] = target: MAP3K13 (human) (UniProt O43283)
[40] = target: PRKACB (human) (UniProt P22694)

TESK1 (human), sequence (Q15569 whole entry, looked up): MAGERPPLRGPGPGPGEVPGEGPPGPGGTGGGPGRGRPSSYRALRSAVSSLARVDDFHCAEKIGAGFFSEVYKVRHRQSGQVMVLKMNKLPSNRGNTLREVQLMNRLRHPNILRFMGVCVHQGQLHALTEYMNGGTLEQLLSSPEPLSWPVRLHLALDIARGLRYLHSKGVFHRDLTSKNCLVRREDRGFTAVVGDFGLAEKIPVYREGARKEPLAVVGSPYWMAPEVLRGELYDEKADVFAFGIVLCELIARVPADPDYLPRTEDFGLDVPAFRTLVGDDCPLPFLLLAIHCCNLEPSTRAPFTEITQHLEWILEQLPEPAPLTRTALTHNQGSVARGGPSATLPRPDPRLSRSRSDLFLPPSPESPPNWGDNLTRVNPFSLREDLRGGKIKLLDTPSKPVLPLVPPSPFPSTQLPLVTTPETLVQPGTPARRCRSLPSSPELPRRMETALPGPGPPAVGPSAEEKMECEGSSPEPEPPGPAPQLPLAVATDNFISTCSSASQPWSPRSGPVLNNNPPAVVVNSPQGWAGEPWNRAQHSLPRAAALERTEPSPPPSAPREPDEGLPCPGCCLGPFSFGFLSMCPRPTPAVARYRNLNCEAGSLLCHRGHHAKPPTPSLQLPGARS
DCLK2 (human), sequence (Q8N568 whole entry, looked up): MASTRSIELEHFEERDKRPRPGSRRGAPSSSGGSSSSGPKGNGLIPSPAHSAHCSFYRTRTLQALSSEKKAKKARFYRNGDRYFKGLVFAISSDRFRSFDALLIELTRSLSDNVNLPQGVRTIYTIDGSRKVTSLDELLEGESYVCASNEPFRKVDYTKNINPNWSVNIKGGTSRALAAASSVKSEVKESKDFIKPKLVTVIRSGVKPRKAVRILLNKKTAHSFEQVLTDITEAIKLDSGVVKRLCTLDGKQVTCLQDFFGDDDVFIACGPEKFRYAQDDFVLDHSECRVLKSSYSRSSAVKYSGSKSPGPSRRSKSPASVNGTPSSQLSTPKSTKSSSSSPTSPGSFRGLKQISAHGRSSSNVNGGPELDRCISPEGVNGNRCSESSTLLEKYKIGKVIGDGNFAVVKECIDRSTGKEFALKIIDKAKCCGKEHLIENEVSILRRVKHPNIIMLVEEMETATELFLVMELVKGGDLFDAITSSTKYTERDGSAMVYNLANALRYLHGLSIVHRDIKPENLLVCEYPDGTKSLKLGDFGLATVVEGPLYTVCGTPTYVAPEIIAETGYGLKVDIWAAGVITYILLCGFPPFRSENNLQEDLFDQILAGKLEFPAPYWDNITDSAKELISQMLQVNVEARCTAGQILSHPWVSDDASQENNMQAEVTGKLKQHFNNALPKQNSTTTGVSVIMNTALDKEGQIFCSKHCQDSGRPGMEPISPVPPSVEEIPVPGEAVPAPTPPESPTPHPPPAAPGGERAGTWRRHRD
GRK7 (human), sequence (Q8WTQ7 whole entry, looked up): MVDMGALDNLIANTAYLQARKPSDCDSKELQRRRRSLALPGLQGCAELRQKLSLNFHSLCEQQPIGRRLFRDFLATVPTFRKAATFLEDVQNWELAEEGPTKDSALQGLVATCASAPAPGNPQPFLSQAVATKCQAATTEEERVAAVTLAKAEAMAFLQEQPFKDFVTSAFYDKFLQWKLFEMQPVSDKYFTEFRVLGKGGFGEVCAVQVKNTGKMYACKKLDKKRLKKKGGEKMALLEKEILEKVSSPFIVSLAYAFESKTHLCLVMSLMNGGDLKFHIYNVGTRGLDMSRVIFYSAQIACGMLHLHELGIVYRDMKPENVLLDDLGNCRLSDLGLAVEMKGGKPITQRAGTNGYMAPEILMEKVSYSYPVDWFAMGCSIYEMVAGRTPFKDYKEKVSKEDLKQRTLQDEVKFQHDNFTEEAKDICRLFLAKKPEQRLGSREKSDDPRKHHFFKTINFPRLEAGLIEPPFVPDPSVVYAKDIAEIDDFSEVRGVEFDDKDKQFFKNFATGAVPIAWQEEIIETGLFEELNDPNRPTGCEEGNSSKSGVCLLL
CSNK1D (human), sequence (P48730 whole entry, looked up): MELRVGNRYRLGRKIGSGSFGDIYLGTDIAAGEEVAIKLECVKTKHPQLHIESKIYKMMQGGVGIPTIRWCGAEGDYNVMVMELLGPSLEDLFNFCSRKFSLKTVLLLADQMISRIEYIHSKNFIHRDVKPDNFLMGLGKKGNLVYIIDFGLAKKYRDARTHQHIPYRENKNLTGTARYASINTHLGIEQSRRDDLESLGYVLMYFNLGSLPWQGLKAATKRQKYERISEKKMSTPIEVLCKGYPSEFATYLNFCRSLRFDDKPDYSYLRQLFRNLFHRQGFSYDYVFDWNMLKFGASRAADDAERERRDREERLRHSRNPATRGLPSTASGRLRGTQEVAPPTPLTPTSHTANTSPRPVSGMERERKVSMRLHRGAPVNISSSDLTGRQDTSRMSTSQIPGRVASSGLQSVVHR
MAST1 (human), sequence (Q9Y2H9 whole entry, looked up): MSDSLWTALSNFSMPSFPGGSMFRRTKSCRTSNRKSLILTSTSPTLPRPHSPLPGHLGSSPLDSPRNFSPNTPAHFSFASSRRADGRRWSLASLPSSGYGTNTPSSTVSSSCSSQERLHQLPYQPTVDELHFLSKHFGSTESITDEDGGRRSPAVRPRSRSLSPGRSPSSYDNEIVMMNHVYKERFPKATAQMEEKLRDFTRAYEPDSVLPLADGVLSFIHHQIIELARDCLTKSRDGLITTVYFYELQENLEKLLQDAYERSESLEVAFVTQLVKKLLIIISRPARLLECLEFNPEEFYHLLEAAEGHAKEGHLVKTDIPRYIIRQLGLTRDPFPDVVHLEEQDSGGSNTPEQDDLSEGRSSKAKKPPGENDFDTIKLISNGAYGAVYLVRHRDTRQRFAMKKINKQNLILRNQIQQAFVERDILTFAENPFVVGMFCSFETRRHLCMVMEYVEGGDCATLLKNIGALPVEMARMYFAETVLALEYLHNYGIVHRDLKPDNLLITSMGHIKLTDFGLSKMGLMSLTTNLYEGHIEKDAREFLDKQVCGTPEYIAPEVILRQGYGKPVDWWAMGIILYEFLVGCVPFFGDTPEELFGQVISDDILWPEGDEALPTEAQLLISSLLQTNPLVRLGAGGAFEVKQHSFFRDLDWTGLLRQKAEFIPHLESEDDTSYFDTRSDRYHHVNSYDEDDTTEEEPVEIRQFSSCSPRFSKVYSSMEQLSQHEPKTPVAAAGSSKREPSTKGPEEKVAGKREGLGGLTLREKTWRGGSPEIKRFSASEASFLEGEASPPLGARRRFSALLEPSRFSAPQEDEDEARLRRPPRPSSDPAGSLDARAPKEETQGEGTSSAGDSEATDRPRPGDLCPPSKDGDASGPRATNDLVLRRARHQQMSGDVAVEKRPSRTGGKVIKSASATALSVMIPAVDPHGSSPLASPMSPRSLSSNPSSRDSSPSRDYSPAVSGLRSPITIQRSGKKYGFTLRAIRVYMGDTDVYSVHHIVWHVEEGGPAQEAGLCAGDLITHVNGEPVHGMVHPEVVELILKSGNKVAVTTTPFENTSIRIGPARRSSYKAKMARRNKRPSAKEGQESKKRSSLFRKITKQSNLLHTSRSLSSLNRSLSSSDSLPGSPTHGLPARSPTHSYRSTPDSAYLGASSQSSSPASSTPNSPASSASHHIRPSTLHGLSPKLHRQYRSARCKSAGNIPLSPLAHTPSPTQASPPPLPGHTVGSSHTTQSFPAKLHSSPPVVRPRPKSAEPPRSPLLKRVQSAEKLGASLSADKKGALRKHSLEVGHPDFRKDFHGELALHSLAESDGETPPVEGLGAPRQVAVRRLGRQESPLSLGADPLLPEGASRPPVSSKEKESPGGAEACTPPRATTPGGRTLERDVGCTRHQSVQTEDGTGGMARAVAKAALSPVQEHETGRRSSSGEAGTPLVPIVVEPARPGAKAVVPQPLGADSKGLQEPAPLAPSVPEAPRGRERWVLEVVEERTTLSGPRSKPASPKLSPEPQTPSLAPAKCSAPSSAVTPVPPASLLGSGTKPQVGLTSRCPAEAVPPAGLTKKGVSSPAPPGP
CHEK2 (human), sequence (O96017 whole entry, looked up): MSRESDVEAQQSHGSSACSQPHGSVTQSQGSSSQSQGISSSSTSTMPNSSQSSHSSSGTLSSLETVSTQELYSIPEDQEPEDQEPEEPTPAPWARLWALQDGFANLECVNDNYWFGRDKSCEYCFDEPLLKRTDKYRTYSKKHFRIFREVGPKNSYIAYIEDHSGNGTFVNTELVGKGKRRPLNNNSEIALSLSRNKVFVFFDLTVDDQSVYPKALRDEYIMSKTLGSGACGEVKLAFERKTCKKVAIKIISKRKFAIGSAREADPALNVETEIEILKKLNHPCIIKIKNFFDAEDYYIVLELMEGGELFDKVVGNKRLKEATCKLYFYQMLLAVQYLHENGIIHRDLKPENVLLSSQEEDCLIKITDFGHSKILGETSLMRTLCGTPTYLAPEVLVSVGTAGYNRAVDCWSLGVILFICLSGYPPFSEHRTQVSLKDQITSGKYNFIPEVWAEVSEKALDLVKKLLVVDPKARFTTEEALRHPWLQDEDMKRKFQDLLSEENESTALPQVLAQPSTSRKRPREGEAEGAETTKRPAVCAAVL
ULK3 (human), sequence (Q6PHR2 whole entry, looked up): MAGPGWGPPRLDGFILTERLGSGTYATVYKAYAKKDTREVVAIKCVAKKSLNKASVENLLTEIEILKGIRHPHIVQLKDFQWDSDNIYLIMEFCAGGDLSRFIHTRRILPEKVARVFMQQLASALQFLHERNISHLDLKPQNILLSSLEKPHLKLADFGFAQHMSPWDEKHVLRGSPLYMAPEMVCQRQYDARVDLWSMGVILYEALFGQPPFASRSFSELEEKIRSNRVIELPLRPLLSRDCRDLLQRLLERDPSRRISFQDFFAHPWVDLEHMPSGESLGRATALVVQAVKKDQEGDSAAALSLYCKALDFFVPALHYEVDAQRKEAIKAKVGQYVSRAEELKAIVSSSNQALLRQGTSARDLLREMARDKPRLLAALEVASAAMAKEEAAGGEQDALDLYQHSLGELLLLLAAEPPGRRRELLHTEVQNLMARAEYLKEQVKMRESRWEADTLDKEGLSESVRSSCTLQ

| SMILES | kinase still bound, per cent of control [1] [%] | kinase still bound, per cent of control [2] [%] | kinase still bound, per cent of control [3] [%] | kinase still bound, per cent of control [4] [%] | kinase still bound, per cent of control [6] [%] | kinase still bound, per cent of control [7] [%] | kinase still bound, per cent of control [8] [%] | kinase still bound, per cent of control [9] [%] | kinase still bound, per cent of control [10] [%] | kinase still bound, per cent of control [11] [%] | kinase still bound, per cent of control [12] [%] | kinase still bound, per cent of control [13] [%] | kinase still bound, per cent of control [14] [%] | kinase still bound, per cent of control [15] [%] | kinase still bound, per cent of control [16] [%] | kinase still bound, per cent of control [17] [%] | kinase still bound, per cent of control [18] [%] | kinase still bound, per cent of control [19] [%] | kinase still bound, per cent of control [20] [%] | kinase still bound, per cent of control [21] [%] | also measured |
| --- | --- | --- | --- | --- | --- | --- | --- | --- | --- | --- | --- | --- | --- | --- | --- | --- | --- | --- | --- | --- | --- |
| CC1=C(C(=O)Nc2cc3cn[nH]c3cc2F)C(c2ccc(C(F)(F)F)cc2)CC(=O)N1 (stereo not drawn) | 100 | 87 | 55 | 92 | 60 | 75 | 95 | 87 | 19 | 92 | 36 | 100 | 99 | 83 | 70 | 66 | 77 | 86 | 97 | 82 | kinase still bound, per cent of control [5]: 98%; kinase still bound, per cent of control [22]: 100%; kinase still bound, per cent of control [23]: 79%; kinase still bound, per cent of control [24]: 78%; kinase still bound, per cent of control [25]: 92%; kinase still bound, per cent of control [26]: 85%; kinase still bound, per cent of control [27]: 96%; kinase still bound, per cent of control [28]: 78%; kinase still bound, per cent of control [29]: 25%; kinase still bound, per cent of control [30]: 78%; kinase still bound, per cent of control [31]: 95%; kinase still bound, per cent of control [32]: 84%; kinase still bound, per cent of control [33]: 72%; kinase still bound, per cent of control [34]: 64%; kinase still bound, per cent of control [35]: 86%; kinase still bound, per cent of control [36]: 100%; kinase still bound, per cent of control [37]: 99%; kinase still bound, per cent of control [38]: 81%; kinase still bound, per cent of control [39]: 83% |
| CCc1nc(-c2cccc(C)c2)c(-c2ccnc(NC(=O)c3ccccc3)c2)s1 | 100 | 86 | 88 | 81 | 30 | 100 | 81 | 98 | 100 | 49 | 97 | 48 | 62 | 14 | 100 | 100 | 100 | 100 | 90 | 45 | kinase still bound, per cent of control [40]: 95%; kinase still bound, per cent of control [22]: 88%; kinase still bound, per cent of control [23]: 100%; kinase still bound, per cent of control [24]: 80%; kinase still bound, per cent of control [25]: 2%; kinase still bound, per cent of control [26]: 100%; kinase still bound, per cent of control [27]: 17%; kinase still bound, per cent of control [28]: 86%; kinase still bound, per cent of control [29]: 100%; kinase still bound, per cent of control [30]: 81%; kinase still bound, per cent of control [31]: 71%; kinase still bound, per cent of control [32]: 80%; kinase still bound, per cent of control [33]: 92%; kinase still bound, per cent of control [34]: 84%; kinase still bound, per cent of control [35]: 100%; kinase still bound, per cent of control [36]: 100%; kinase still bound, per cent of control [37]: 88%; kinase still bound, per cent of control [38]: 100%; kinase still bound, per cent of control [39]: 100% |
